Drawing on patent publication US11634447B2 (priority 2012, dated 2023), this text covers Kd and IC50 for five compounds.

Several values for one entry are separate records, joined by “and”; a condition that tells them apart may be missing. Identical values can stand only once.

In assay [1] the target is T1, FimH-CRD (Escherichia coli, UniProt P08191).
T1 construct: The first 177 amino acids of the FimH protein are expressed as a fusion protein; thrombin tag (printed as 'fusion protein with thrombin') (cleaved yes); made in house; host or cells: bacteria (pET21b plasmid)
Nature of the assay: Competitive binding assay by fluorescence polarization, assay 1 (compounds prepared by manual dilution). The arrangement: species or system E. coli. A digest of the protocol: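 FimH-CRD (residues 1-177, tag removed) at 60 nM competed against 5 nM Alexa 647 mannoside probe in 50 mM Tris-Cl pH 7.0, 100 mM NaCl, 1 mM EDTA, 5 mM β-mercaptoethanol, 0.05% BSA, 2.5% DMSO; 5 h, room temperature, dark. Compounds 0.4 nM-75 μM final, 12-point 3-fold, duplicate; Kd from fluorescence polarization displacement curves. Assay 1: manual dilution; assay 2: robotic dilution, plates frozen/thawed.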
For orientation: Polarisation of emitted light reports the rotation of a fluorescent probe.

The target of assay [2] is T1, FimH-CRD. Nature of the assay: Competitive binding assay by fluorescence polarization, assay 2 (compounds prepared by a robotics system, plates frozen and thawed). The arrangement: species or system E. coli. To be noted: Assay 2 Kd, 5 nM Alexa 647 mannoside probe, 60 nM FimH-CRD, replicate values in one cell. As for the experimental part: The first 177 amino acids of the FimH protein are expressed as a fusion protein with thrombin in a pET21b plasmid in bacteria. This FimH protein sequence contains the carbohydrate recognition domain (CRD) and shall be termed FimH-CRD. Following bacterial expression of the protein, the FimH-CRD protein is purified to homogeneity and the thrombin tag removed by protease cleavage. A competitive binding assay by fluorescence polarization is performed using 5 nM of the Alexa 647 mannoside probe and 60 nM of the FimH-CRD. The samples are assayed in a low volume 384 well microtiter plate in a final volume of 20 μl. The final assay buffer conditions are the following, 50 mM Tris-Cl, ph 7.0, 100 mM NaCl, 1 mM EDTA, 5 mM β-mercaptoethanol, 0.05% BSA and 2.5% DMSO. Two assays are performed for FimH, termed assay 1 or assay 2. The assay conditions are the same for both assays except the following: assay 1 has compounds prepared by manual dilution in a serial dilution factor with 12-point dose response while assay 2 has compounds prepared by a robotics system also through a serial dilution factor (12 point dose response) and initially prepared in duplicate in 384 well-Corning polypropylene round bottom plates. The assay 2 plates have compound which is then frozen and must be thawed prior to use. Initially the Alexa 647 probe and the FimH-CRD are added to the assay buffer and then 0.5 μl of test compound (assay 1 or 2) between 0.4 nM to 75 μM final concentration are added (12 point titration with 3-fold serial dilution). Control wells for the Alexa 647 probe are prepared with the same conditions except for the addition of the FimH-CRD protein. Plates are then incubated for 5 hrs at room temperature in the dark and under humid conditions to prevent drying. Plates are read using the SpectraMax Paradigm multi-mode plate reader and the appropriate fluorescent polarization detection cartridge (Alexa-647).
Alexa 647 mannoside probe is prepared using the similar procedure reported for FAM mannoside (Han, Z. et. al., 2010, J. Med. Chem., 53, 4779) and is described in the scheme below.
To a blue colored stirred solution of (2S,3S,4S,5S,6R)-2-(4-aminobutoxy)-6-(hydroxymethyl)tetrahydropyran-3,4,5-triol (2.21 mg, 0.009 mmol) and the (2E)-2-[(2E,4E)-5-[3,3-dimethyl-5-sulfonato-1-(3-sulfonatopropyl)indol-1-ium-2-yl]penta-2,4-dienylidene]-3-[6-(2,5-dioxopyrrolidin-1-yl)oxy-6-oxo-hexyl]-3-methyl-1-(3-sulfonatopropyl)indoline-5-sulfonate (Potassium Ion (3)) (4.9 mg, 0.0044 mmol) in DMF (44 μL) is added Et3N (5.4 mg, 7.0 μL, 0.053 mmol) at RT. The solution is stirred at room temperature over night, concentrated, dissolved in water and purified on 12 g C-18 silica gel cartridge on Isolera system using acetonitrile in water (0 to 40%, 10 CV) and followed by lyophilization to afford Alexa 647 mannoside probe (3.3 mg, 34%) as deep blue solid.
The Kd values of the compounds are determined from dose response curves using twelve concentrations per compound in duplicate. Curves are fitted to data points using Fluorescence Polarization competitive displacement analysis, and Kds are interpolated from the resulting curves using GraphPad Prism software, version […] (GraphPad software Inc., San Diego, Calif., USA).

Assay [3] relates to bacterial strain LF82 binding to the glycoprotein BSA-(Mannose)3. Nature of the assay: Bacterial Binding Assay (BBA). Type of assay: cell-based, Escherichia coli. To be noted: read-out: Bacterial Binding Assay IC50, LF82/Luciferase strain binding to BSA-(Man)3 coated plates, luminescence. A digest of the protocol: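 Inhibition of LF82/luciferase E. coli adhesion is read as luminescence after washing off unbound cells. Compound and bacteria (10^7 per well) are co-incubated 40-75 min at room temperature on wells coated with 0.5-2 μg/mL BSA-(Man)3, with BSA-only wells as background; IC50 values derived.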

Where [4] appears, read: Assay 1 Kd, 5 nM Alexa 647 mannoside probe, 60 nM FimH-CRD, replicate values in one cell.

A word on the Kd: it is the free concentration of one partner at which half of the binding sites on the other are occupied at equilibrium, for simple one-to-one binding.

T1 sequence (P08191 22-177): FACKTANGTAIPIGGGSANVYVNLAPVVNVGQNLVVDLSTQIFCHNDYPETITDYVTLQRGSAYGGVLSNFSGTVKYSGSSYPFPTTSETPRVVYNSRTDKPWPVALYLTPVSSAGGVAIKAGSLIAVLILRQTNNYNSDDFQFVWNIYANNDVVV

Take `OC[C@H]1O[C@H](CCc2cccc([C@H]3O[C@H](CO)[C@@H](O)[C@H](O)[C@@H]3O)c2)[C@@H](O)[C@@H](O)[C@@H]1O` [Compound 37, ((2R,3S,4R,5S,6R)-2-(Hydroxymethyl)-6-[2-[3-[(2R,3S,4R,5S,6R)-3,4,5-trihydroxy-6-(hydroxymethyl)tetrahydropyran-2-yl]phenyl]ethyl]tetrahydropyran-3,4,5-triol)]: the dissociation constant (Kd) is 7 nM at FimH-CRD [1] (setting [4]); 18 nM and < 5 nM and 12 nM at FimH-CRD [2]. Besides, in assay [3], the IC50 came out at 1650 nM.
Take `OC[C@H]1O[C@H](C/C=C/c2cccc(/C=C/C[C@H]3O[C@H](CO)[C@@H](O)[C@H](O)[C@@H]3O)c2)[C@@H](O)[C@@H](O)[C@@H]1O` [Compound 25, ((2R,3S,4R,5S,6R)-2-(Hydroxymethyl)-6-[(E)-3-[3-[(E)-3-[(2R,3S,4R,5S,6R)-3,4,5-trihydroxy-6-(hydroxymethyl)tetrahydropyran-2-yl]prop-1-enyl]phenyl]allyl]tetrahydropyran-3,4,5-triol)]: the dissociation constant (Kd) at FimH-CRD [1] (setting [4]) was below 5 nM; at FimH-CRD [1] (read-out: Assay 1 Kd, 5 nM Alexa 647 mannoside probe, 60 nM FimH-CRD, replicate values in one cell), below 5 nM; at FimH-CRD [2], 21 nM and 10 nM and 12 nM. Further, the IC50 in assay [3] turned out to be 1400 nM.
For the compound `O=C(Nc1ccc(Cc2ccc(NC(=O)c3cccc([C@H]4O[C@H](CO)[C@@H](O)[C@H](O)[C@@H]4O)c3)cc2)cc1)c1cccc([C@H]2O[C@H](CO)[C@@H](O)[C@H](O)[C@@H]2O)c1` [Compound 16], the dissociation constant Kd at FimH-CRD [1] (setting [4]) is < 5 nM and 6 nM; at FimH-CRD [2], 26 nM and < 5 nM and 9 nM. Besides, the IC50 in assay [3] was 1510 nM.
With `OC[C@H]1O[C@H](CCc2ccc(CC[C@H]3O[C@H](CO)[C@@H](O)[C@H](O)[C@@H]3O)cc2)[C@@H](O)[C@@H](O)[C@@H]1O` [Compound 22, ((2R,3S,4R,5S,6R)-2-(Hydroxymethyl)-6-[2-[4-[2-[(2R,3S,4R,5S,6R)-3,4,5-trihydroxy-6-(hydroxymethyl)tetrahydropyran-2-yl]ethyl]phenyl]ethyl]tetrahydropyran-3,4,5-triol)], the dissociation constant (Kd) at FimH-CRD [1] (setting [4]) is < 5 nM and 12 nM; at FimH-CRD [2], 14 nM and < 5 nM and 11 nM. Moreover, in assay [3], the IC50 was 1600 nM.
Regarding `OC[C@H]1O[C@H](CCCC[C@H]2O[C@H](CO)[C@@H](O)[C@H](O)[C@@H]2O)[C@@H](O)[C@@H](O)[C@@H]1O` [Compound 23], the equilibrium dissociation constant (Kd) was 9 nM and 12 nM on FimH-CRD [1] (setting [4]); 25 nM and < 5 nM and 14 nM at FimH-CRD [2]. For the same compound, in assay [3], the IC50 was found to be 5800 nM.
